The values that follow are results of earlier work, collected in patent US11293915B2, “Bio-adhesive gels and methods of use” (Cornell University, priority 2014, dated 2022).

The conditions of the series: DTT incorporated hydrogels, DTT concentrations up to 70 mM.

Turning to `O[C@H](CS)[C@H](O)CS` (racemic) [DTT, dithiothreitol], the cytotoxicity entry is reported as “do not cause significant cytotoxicity”.
